Experimental data reported in ChEMBL document CHEMBL5131483, “Design, chemical synthesis and antiviral evaluation of 2'-deoxy-2'-fluoro-2'-C-methyl-4'-thionucleosides” (Bioorg Med Chem Lett, 2022).

tested on: not listed separately; assay: Cytotoxicity against human U-87 MG cells measured after 3 days by Celltiter-glo assay; assay type: functional, U-87MG ATCC; conditions: 72 h, time 3 day

For `Nc1ccn([C@@H]2O[C@H](CO)[C@@H](O)[C@@H]2O)c(=O)n1` [CYTARABINE], which CC50 is on record?
The CC50 was 0.19 µM.

tested on: Hepatitis C virus; assay: Antiviral activity against HCV by replicon assay; assay type: functional, organism-based, Hepacivirus hominis; conditions: not given

With `C[C@@]1(F)[C@H](O)[C@@H](CO)S[C@@H]1n1ccc(=O)[nH]c1=O` as the compound, how does the EC50 read?
Its EC50 is greater than 100 µM.

Which EC50 does the source give for `Nc1ccn([C@@H]2O[C@H](CO)[C@@H](O)[C@H]2O)c(=O)n1` [CYTIDINE] here?
Its EC50 is 50 µM.

For `O=c1ccn([C@@H]2O[C@H](CO)[C@@H](O)[C@@H]2O)c(=O)[nH]1` [ARAURIDINE], which EC50 is on record?
The EC50 was greater than 100 µM.

For `Nc1ccn([C@@H]2O[C@H](CO)[C@@H](O)[C@@H]2O)c(=O)n1` [CYTARABINE], which EC50 is on record?
Its EC50 is 0.16 µM.

With `Nc1ccn([C@H]2[C@H](O)[C@H](O)[C@@H](CO)[S+]2[O-])c(=O)n1` (stereo not given in full) as the compound, how does the EC50 read?
The EC50 was greater than 100 µM.

For `CC(C)OC(=O)[C@H](C)N[P@](=O)(OC[C@H]1O[C@@H](n2ccc(=O)[nH]c2=O)[C@](C)(F)[C@@H]1O)Oc1ccccc1` [SOFOSBUVIR], which EC50 is on record?
The EC50 was 0.03 µM.

For `Nc1ccn([C@@H]2S[C@H](CO)[C@@H](O)C2(F)F)c(=O)n1`, which EC50 is on record?
The EC50 was 22.5 µM.

With `Nc1ccn([C@@H]2[S+]([O-])[C@H](CO)[C@@H](O)C2(F)F)c(=O)n1` (mixture of isomers) as the compound, how does the EC50 read?
The EC50 was 21.8 µM.

Which EC50 does the source give for `O=c1ccn([C@@H]2O[C@H](CO)[C@@H](O)[C@H]2O)c(=O)[nH]1` [URIDINE] here?
Its EC50 is 65.9 µM.

For `Nc1ccn([C@H]2[C@@H](O)[C@H](O)[C@@H](CO)[S+]2[O-])c(=O)n1` (mixture of isomers), which EC50 is on record?
The EC50 was greater than 100 µM.

For `C[C@@]1(F)[C@H](O)[C@@H](CO)S[C@H]1n1ccc(N)nc1=O`, which EC50 is on record?
The EC50 was greater than 100 µM.

For `C[C@@]1(F)[C@H](O)[C@@H](CO)S[C@H]1n1ccc(=O)[nH]c1=O`, which EC50 is on record?
Its EC50 is greater than 100 µM.

With `CC(C)OC(=O)[C@@H](C)N[P@](=O)(OC[C@H]1S[C@@H](n2ccc(=O)[nH]c2=O)[C@](C)(F)[C@@H]1O)Oc1ccccc1` as the compound, how does the EC50 read?
Its EC50 is 2.99 µM.

With `C[C@@]1(F)[C@H](O)[C@@H](CO)S[C@@H]1n1ccc(N)nc1=O` as the compound, how does the EC50 read?
The EC50 was greater than 100 µM.
